Experimental data reported in patent US20260125346A1, “Isoquinolinone Derivatives and 4H-Quinolizinone Derivatives and Pharmaceutical Compositions Thereof for the Treatment of Disease” (BeOne Medicines I GmbH, priority 2023, published 2026).

Tests used:
[1] = test system: PI3Kα H1047R mutated cell line T-47D; test: Phospho-AKT (Ser473) Inhibition Assay (HTRF), T-47D; format: cell-based; settings: for IC50: Homo sapiens, T47D, T-47D, 1 hour treatment, read-out: p-AKT Inhibition assay (S473) IC50 T-47D; for Selectivity: SK-BR-3/T-47D (p-AKT): p-AKT (S473) IC50 ratio
Description: Cell Culture Maintenance. The T-47D (ATCC, HTB-133) cell line was obtained from the American Type Culture Collection. Cells were maintained in RPMI1640 medium (Gibco, REF #22400105) supplemented with 10% Fetal Bovine Serum (Gibco, REF #10091148). Cultures were maintained in a humidified incubator at 37° C. under 5% CO2/95% air.
(§1) Phospho-AKT Inhibition Assay. HTRF Phospho-AKT (Ser473) detection kit (Cisbio, REF #64AKSPEH) was used in phosphor-AKT inhibition assay. For compound screening, PI3Kα H1047R mutated cell line T-47D and WT cell line SK-BR-3 cells were seeded at a density of 3×10^4 cells per well in 96 well plate (Costar, REF #3599) in 95 μL of assay medium (MEM medium (Gibco, REF #12561-056) with 1×NEAA (Gibco, REF #11140-050), 1 mM sodium pyruvate (Gibco, REF #11360-070), and 1 g/ml human insulin (Topscience, REF #T8221)), overnight. Compounds dissolved in 10 mM stock solutions in DMSO were serially diluted 1:3 in DMSO to generate an 11-point dilution series and plated using an INTEGRA ASSIST PLUS pipetting robot. A 20× intermediate compound dilution plate in RPMI1640 medium (200 M starting compound concentration in 2% DMSO) was then prepared. Five μL of intermediate serially diluted compounds were added to the cell plate to final concentrations ranging from […] to 0.1 nM in 0.1% DMSO. 0.1% DMSO alone was used to establish the maximum signal and GDC0077 at final concentration of 10 μM was used as a reference compound for minimum signal. After 1 hour treatment, removed medium and added 50 μL of supplemented lysis buffer (1×) immediately. Incubated for at least 30 minutes at room temperature under shaking. Transferred 16 μL of cell lysate from the 96-well cell-culture plate to a 384-white detection plate (PerkinElmer, Optiplate 384, 6007299). Added 4 μL of premixed antibody solutions prepared in the detection buffer. Incubated 4 hours at room temperature in dark. The plates were read on PHERAstar FSX Microplate reader (BMG LABTECH, Inc.) using standard HTRF settings.
(§2) Relative IC50 values were determined using luminescence units by calculating percent inhibition with respect to the in-plate “MIN” (GDC0077 reference control) and “MAX” (DMSO) controls. The data were analyzed using a 4-parameter nonlinear logistic equation (four-parameter logistic concentration-response curve): Y=bottom+[(top−bottom)/1+(X/IC50) slope] • where Y=% inhibition, X=concentration of inhibitor, bottom=minimum value of y attained by curve-fit, top=maximum value of y attained by curve-fit and slope=steepness of curve at the IC50.

WT cell line SK-BR-3 = test: Phospho-AKT (Ser473) Inhibition Assay (HTRF), SK-BR-3; format: cell-based; settings: Homo sapiens; SK-BR-3, 1 hour treatment; read-out: p-AKT Inhibition assay (S473) IC50 SK-BR-3
Description: The SK-BR-3 (ATCC, HTB-30) cell line was obtained from the American Type Culture Collection. Cells were maintained in McCoy' 5A medium (Gibco, REF #16600108) supplemented with 10% Fetal Bovine Serum. Cultures were maintained in a humidified incubator at 37° C. under 5% CO2/95% air.
as §1, §2

| SMILES | IC50 [1] [nM] | IC50 (WT cell line SK-BR-3) [nM] | Selectivity: SK-BR-3/T-47D (p-AKT) [1] |
| --- | --- | --- | --- |
| Cc1cc(C(C)Nc2ccccc2C(=O)O)c2cc(NC(=O)c3ccccc3)n(C)c(=O)c2c1 (stereo not shown) [Example 24, 2-((1-(3-benzamido-2,7-dimethyl-1-oxo-1,2-dihydroisoquinolin-5-yl)ethyl)amino)benzoic acid] | 3140 | > 10000 | >3.1 |
| Cc1cc([C@H](C)Nc2ccccc2C(=O)O)c2cc(-c3ccc(C(C)(C)O)nc3)n(C)c(=O)c2c1 [Example 57, (S)-2-((1-(3-(6-(2-hydroxypropan-2-yl)pyridin-3-yl)-2,7-dimethyl-1-oxo-1,2-dihydroisoquinolin-5-yl)ethyl)amino)benzoic acid] | > 10000 | > 10000 | – |
| Cc1cc([C@H](C)Nc2ccccc2C(=O)O)c2cc(-c3ccccc3)n(C)c(=O)c2c1 [Example 31, (S)-2-((1-(2,7-dimethyl-1-oxo-3-phenyl-1,2-dihydroisoquinolin-5-yl)ethyl)amino)benzoic acid] | > 10000 | > 10000 | – |
| Cc1cc(C(C)Nc2ccccc2C(=O)O)c2cc(-c3ccc4c(c3)C(=O)N(C)C4)n(C)c(=O)c2c1 (stereo not shown) [Example 75, 2-((1-(2,7-dimethyl-3-(2-methyl-3-oxoisoindolin-5-yl)-1-oxo-1,2-dihydroisoquinolin-5-yl)ethyl)amino)benzoic acid] | 547 | > 10000 | >18.29 |
| Cc1cc(C(C)Nc2ccccc2C(=O)O)c2cc(-c3ccc(C4(O)CCOCC4)cc3)n(C)c(=O)c2c1 (stereo not shown) [Example 73, 2-((1-(3-(4-(4-hydroxytetrahydro-2H-pyran-4-yl)phenyl)-2,7-dimethyl-1-oxo-1,2-dihydroisoquinolin-5-yl)ethyl)amino)benzoic acid] | 924 | > 10000 | >10.82 |
| Cc1cc(C(C)Nc2ccccc2C(=O)O)c2cc(-c3ccc4c(c3)CN(C)C4=O)n(C)c(=O)c2c1 (stereo not shown) [Example 70, 2-((1-(2,7-dimethyl-3-(2-methyl-1-oxoisoindolin-5-yl)-1-oxo-1,2-dihydroisoquinolin-5-yl)ethyl)amino)benzoic acid] | 1100 | > 10000 | >9.11 |
| Cc1cc(C(C)Nc2ccccc2C(=O)O)c2cc(-c3cnn(-c4ccc(C(N)=O)cn4)c3)n(C)c(=O)c2c1 (stereo not shown) [Example 16, 2-((1-(3-(1-(5-carbamoylpyridin-2-yl)-1H-pyrazol-4-yl)-2,7-dimethyl-1-oxo-1,2-dihydroisoquinolin-5-yl)ethyl)amino)benzoic acid] | 1580 | > 10000 | >6.3 |
| Cc1cc(C(C)Nc2cccnc2C(=O)O)c2cc(-c3ccc(F)cc3)n(C)c(=O)c2c1 (stereo not shown) [Example 33, 3-((1-(3-(4-fluorophenyl)-2,7-dimethyl-1-oxo-1,2-dihydroisoquinolin-5-yl)ethyl)amino)picolinic acid] | 271 | 9920 | 36.6 |
| Cc1cc(C(C)Nc2ccccc2C(=O)O)c2cc(-c3cncc(F)c3)n(C)c(=O)c2c1 (stereo not shown) [Example 38, 2-((1-(3-(5-fluoropyridin-3-yl)-2,7-dimethyl-1-oxo-1,2-dihydroisoquinolin-5-yl)ethyl)amino)benzoic acid] | 285 | > 10000 | >35 |

The next molecules have a lower IC50 [1] than those just listed; values first:

| IC50 [1] [nM] | IC50 (WT cell line SK-BR-3) [nM] | SMILES | Selectivity: SK-BR-3/T-47D (p-AKT) [1] |
| --- | --- | --- | --- |
| 86.6 | 6850 | Cc1cc(C(C)Nc2ccccc2C(=O)O)c2cc(-c3cccc(C(F)(F)F)c3)n(C)c(=O)c2c1 (stereo not shown) [Example 50, 2-((1-(2,7-dimethyl-1-oxo-3-(3-(trifluoromethyl)phenyl)-1,2-dihydroisoquinolin-5-yl)ethyl)amino)benzoic acid] | 79.1 |
| 64 | 3590 | COc1cccc(-c2cc3c(C(C)Nc4ccccc4C(=O)O)cc(C)cc3c(=O)n2C)c1 (stereo not shown) [Example 13, 2-((1-(3-(3-methoxyphenyl)-2,7-dimethyl-1-oxo-1,2-dihydroisoquinolin-5-yl)ethyl)amino)benzoic acid] | 56.1 |
| 35.5 | 5880 | CC(Nc1ccccc1C(=O)O)c1cccc2c(=O)n(C)c(C#Cc3ccccc3)cc12 (stereo not shown) [Example 21, 2-((1-(2-methyl-1-oxo-3-(phenylethynyl)-1,2-dihydroisoquinolin-5-yl)ethyl)amino)benzoic acid] | 165.3 |
| 80.2 | > 10000 | Cc1cc(C(C)Nc2ccccc2C(=O)O)c2cc(-c3ccc(F)cc3F)n(C)c(=O)c2c1 (stereo not shown) [Example 11, 2-((1-(3-(2,4-difluorophenyl)-2,7-dimethyl-1-oxo-1,2-dihydroisoquinolin-5-yl)ethyl)amino)benzoic acid] | >125 |
| 25.6 | 1360 | Cc1cc(C(C)Nc2ccccc2C(=O)O)c2cc(-c3ccc(F)cc3)n(C3COC3)c(=O)c2c1 (stereo not shown) [Example 95, 2-((1-(3-(4-fluorophenyl)-7-methyl-2-(oxetan-3-yl)-1-oxo-1,2-dihydroisoquinolin-5-yl)ethyl)amino)benzoic acid] | 52.9 |
| 69.8 | 3080 | Cc1cc(C(C)Nc2ccccc2C(=O)O)c2cc(C#Cc3cnn(C)c3)n(C)c(=O)c2c1 (stereo not shown) [Example 80, 2-((1-(2,7-dimethyl-3-((1-methyl-1H-pyrazol-4-yl)ethynyl)-1-oxo-1,2-dihydroisoquinolin-5-yl)ethyl)amino)benzoic acid] | 44.1 |
| 220 | 3160 | COc1ncc(-c2cc3c(C(C)Nc4ccccc4C(=O)O)cc(C)cc3c(=O)n2C)cc1F (stereo not shown) [Example 58, 2-((1-(3-(5-fluoro-6-methoxypyridin-3-yl)-2,7-dimethyl-1-oxo-1,2-dihydroisoquinolin-5-yl)ethyl)amino)benzoic acid] | 14.3 |
| 75.6 | 7190 | CC#Cc1ccc(-c2cc3c(C(C)Nc4ccccc4C(=O)O)cc(C)cc3c(=O)n2C)cc1 (stereo not shown) [Example 52, 2-((1-(2,7-dimethyl-1-oxo-3-(4-(prop-1-yn-1-yl)phenyl)-1,2-dihydroisoquinolin-5-yl)ethyl)amino)benzoic acid] | 95.1 |
| 55.3 | 2160 | Cc1cc(C(C)Nc2ccccc2C(=O)O)c2cc(-c3cccc(F)c3F)n(C)c(=O)c2c1 (stereo not shown) [Example 12, 2-((1-(3-(2,3-difluorophenyl)-2,7-dimethyl-1-oxo-1,2-dihydroisoquinolin-5-yl)ethyl)amino)benzoic acid] | 39.0 |
| 62.4 | 3210 | Cc1cc(C(C)Nc2ccccc2C(=O)O)c2cc(-c3ccccc3F)n(C)c(=O)c2c1 (stereo not shown) [Example 6, 2-((1-(3-(2-fluorophenyl)-2,7-dimethyl-1-oxo-1,2-dihydroisoquinolin-5-yl)ethyl)amino)benzoic acid] | 51.5 |
| 130 | 2970 | Cc1cc(C(C)Nc2ccccc2C(=O)O)c2cc(-c3ccc(C4(O)CC4)cc3)n(C)c(=O)c2c1 (stereo not shown) [Example 62, 2-((1-(3-(4-(1-hydroxycyclopropyl)phenyl)-2,7-dimethyl-1-oxo-1,2-dihydroisoquinolin-5-yl)ethyl)amino)benzoic acid] | 22.9 |
| 68.5 | 1940 | Cc1cc(C(C)Nc2ccccc2C(=O)O)c2cc(C#Cc3ccn(C)n3)n(C)c(=O)c2c1 (stereo not shown) [Example 88, 2-((1-(2,7-dimethyl-3-((1-methyl-1H-pyrazol-3-yl)ethynyl)-1-oxo-1,2-dihydroisoquinolin-5-yl)ethyl)amino)benzoic acid] | 28.3 |
| 82 | 2730 | Cc1cc(C(C)Nc2ccccc2C(=O)O)c2cc(-c3cc(F)cc(F)c3)n(C)c(=O)c2c1 (stereo not shown) [Example 10, 2-((1-(3-(3,5-difluorophenyl)-2,7-dimethyl-1-oxo-1,2-dihydroisoquinolin-5-yl)ethyl)amino)benzoic acid] | 33.3 |
